Measured values published in PubChem BioAssay AID248 (DTP/NCI, 2004).
“And” between values parts separate entries of the source, which are not always exact repeats. Equal values may be shown once. Toxic doses and inconclusive results are not listed. Rule as the data show it: active = T/C of 150% or more; inactive = T/C below 125%.

Tested on: L1210 leukemia ip in BDF1 mice, survival T/C
Experiment: NCI In Vivo Anticancer Drug Screen. Data for tumor model L1210 Leukemia (intraperitoneal) in B6D2F1 (BDF1) mice
Conditions: endpoint: mean survival time, higher = longer survival
Outline: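 Ratio derived from survival: compound-dosed mice over vehicle-dosed mice, all bearing a transplantable tumor.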

[1] = dose: 50.0 mg/kg/injection, schedule: Q01DX001 (ip), vehicle: saline
[2] = dose: 100.0 mg/kg/injection, schedule: Q01DX001 (ip), vehicle: saline
[3] = dose: 200.0 mg/kg/injection, schedule: Q01DX001 (ip), vehicle: saline
[4] = dose: 400.0 mg/kg/injection, schedule: Q01DX001 (ip), vehicle: saline
[5] = dose: 100.0 mg/kg/injection, schedule: Q04DX003 (ip), vehicle: Klucel (hydroxypropylcellulose) (HPC)
[6] = dose: 200.0 mg/kg/injection, schedule: Q04DX003 (ip), vehicle: Klucel (hydroxypropylcellulose) (HPC)
[7] = dose: 400.0 mg/kg/injection, schedule: Q04DX003 (ip), vehicle: Klucel (hydroxypropylcellulose) (HPC)
[8] = dose: 100.0 mg/kg/injection, schedule: Q01DX009 (ip), vehicle: saline
[9] = dose: 200.0 mg/kg/injection, schedule: Q01DX009 (ip), vehicle: saline
[10] = dose: 50.0 mg/kg/injection, schedule: Q01DX009 (ip), vehicle: saline

Measured: T/C

Cc1c(Cl)cc(C(C)C)c(O)c1CN1CCCCC1
inactive: dose: 222.0 mg/kg/injection, schedule: Q01DX Z (ip), vehicle: saline 92 % of control | dose: 333.0 mg/kg/injection, schedule: Q01DX Z (ip), vehicle: saline 91 % of control | dose: 500.0 mg/kg/injection, schedule: Q01DX Z (ip), vehicle: saline 91 % of control

O=C(CCCC(=O)N/N=C/c1ccc(Cl)cc1Cl)N/N=C\c1ccc(Cl)cc1Cl
inactive: [1] 97 % of control | [2] 97 % of control | [3] 93 % of control | [4] 97 % of control

O=C(/C=C/c1ccccc1)NC(=S)NCc1ccco1
inactive: dose: 100.0 mg/kg/injection, schedule: Q01DX009 (ip), vehicle: Klucel (hydroxypropylcellulose) (HPC) 94 % of control and 95 % of control | dose: 100.0 mg/kg/injection, schedule: Q04DX002 (ip), vehicle: Klucel (hydroxypropylcellulose) (HPC) 97 % of control | [5] 95 % of control | dose: 200.0 mg/kg/injection, schedule: Q01DX009 (ip), vehicle: Klucel (hydroxypropylcellulose) (HPC) 92 % of control and 98 % of control | dose: 200.0 mg/kg/injection, schedule: Q04DX002 (ip), vehicle: Klucel (hydroxypropylcellulose) (HPC) 101 % of control and 114 % of control | [6] 95 % of control | dose: 400.0 mg/kg/injection, schedule: Q01DX009 (ip), vehicle: Klucel (hydroxypropylcellulose) (HPC) 94 % of control and 95 % of control | dose: 400.0 mg/kg/injection, schedule: Q04DX002 (ip), vehicle: Klucel (hydroxypropylcellulose) (HPC) 95 % of control and 102 % of control | [7] 94 % of control

Nc1ccc(Cc2ccc(N)cc2)cc1
inactive: dose: 25.0 mg/kg/injection, schedule: Q01DX009 (ip), vehicle: gum acacia 95 % of control | dose: 50.0 mg/kg/injection, schedule: Q01DX009 (ip), vehicle: gum acacia 105 % of control | dose: 100.0 mg/kg/injection, schedule: Q01DX009 (ip), vehicle: gum acacia 105 % of control and 112 % of control

CC(C)C1OCCO1
inactive: dose: 50.0 mg/kg/injection, schedule: Q01DX009 (ip), vehicle: acetone 92 % of control | dose: 100.0 mg/kg/injection, schedule: Q01DX009 (ip), vehicle: acetone 101 % of control | dose: 200.0 mg/kg/injection, schedule: Q01DX009 (ip), vehicle: acetone 95 % of control

Brc1ccc2[nH]c3c(c2c1)CCCC3
inactive: [2] 87 % of control | [3] 89 % of control | [4] 98 % of control

CCOC(=O)c1cccc(N(CCO)CCO)c1
inactive: [1] 103 % of control | [2] 97 % of control | [3] 103 % of control | [4] 103 % of control

NC1=NC2OC(CO)C(O)C2O1 (centres undefined)
inactive: [8] 104 % of control | [5] 100 % of control | [9] 95 % of control | [6] 95 % of control | dose: 400.0 mg/kg/injection, schedule: Q01DX009 (ip), vehicle: saline 101 % of control | [7] 97 % of control

CCCC(C)C(C#N)c1ccccc1 (centres undefined)
inactive: dose: 25.0 mg/kg/injection, schedule: Q01DX009 (ip), vehicle: Klucel (hydroxypropylcellulose) (HPC) 101 % of control and 103 % of control | dose: 25.0 mg/kg/injection, schedule: Q04DX003 (ip), vehicle: Klucel (hydroxypropylcellulose) (HPC) 95 % of control | dose: 50.0 mg/kg/injection, schedule: Q01DX009 (ip), vehicle: Klucel (hydroxypropylcellulose) (HPC) 93 % of control and 98 % of control and 90 % of control | dose: 50.0 mg/kg/injection, schedule: Q04DX003 (ip), vehicle: Klucel (hydroxypropylcellulose) (HPC) 88 % of control | [5] 89 % of control

O=C(Nc1ccccc1)C(Cl)S(=O)(=O)O (centres undefined)
inactive: dose: 100.0 mg/kg/injection, schedule: Q01DX001 (ip), vehicle: saline with Tween-80 97 % of control | dose: 200.0 mg/kg/injection, schedule: Q01DX001 (ip), vehicle: saline with Tween-80 97 % of control

NCC1OCOC2C(C(=O)O)OCOC12 (centres undefined)
inactive: dose: 50.0 mg/kg/injection, schedule: Q04DX002 (ip), vehicle: saline 101 % of control | dose: 100.0 mg/kg/injection, schedule: Q04DX002 (ip), vehicle: saline 96 % of control | dose: 200.0 mg/kg/injection, schedule: Q04DX002 (ip), vehicle: saline 101 % of control | dose: 400.0 mg/kg/injection, schedule: Q04DX002 (ip), vehicle: saline 96 % of control

Cc1nc(N)[nH]c(=O)c1NC(=O)CCc1ccccc1
inactive: dose: 6.25 mg/kg/injection, schedule: Q01DX001 (ip), vehicle: saline with Tween-80 105 % of control | dose: 12.5 mg/kg/injection, schedule: Q01DX001 (ip), vehicle: saline with Tween-80 101 % of control | dose: 25.0 mg/kg/injection, schedule: Q01DX001 (ip), vehicle: saline with Tween-80 98 % of control

Nc1cccc(CCCCc2ccc(S(=O)(=O)F)cc2)c1
inactive: [2] 101 % of control | [3] 95 % of control | [4] 98 % of control

COC(C(=O)O)c1ccc(Cl)cc1 (centres undefined)
inactive: dose: 100.0 mg/kg/injection, schedule: Q04DX002 (ip), vehicle: saline with Tween-80 98 % of control | dose: 200.0 mg/kg/injection, schedule: Q04DX002 (ip), vehicle: saline with Tween-80 91 % of control | dose: 400.0 mg/kg/injection, schedule: Q04DX002 (ip), vehicle: saline with Tween-80 91 % of control

CCCCCCCCCCCC(=O)NN
inactive: dose: 18.8 mg/kg/injection, schedule: Q01DX009 (ip), vehicle: carboxymethylcellulose (CMC) 105 % of control | dose: 37.5 mg/kg/injection, schedule: Q01DX009 (ip), vehicle: carboxymethylcellulose (CMC) 96 % of control | dose: 75.0 mg/kg/injection, schedule: Q01DX009 (ip), vehicle: carboxymethylcellulose (CMC) 109 % of control and 114 % of control | [2] 98 % of control | [3] 104 % of control | [4] 106 % of control

CCCNC
inactive: [10] 90 % of control | [8] 100 % of control | dose: 100.0 mg/kg/injection, schedule: Q04DX003 (ip), vehicle: saline 96 % of control | dose: 200.0 mg/kg/injection, schedule: Q04DX003 (ip), vehicle: saline 98 % of control

N=C(N)Sc1cc(O)ccc1O
inactive: [10] 94 % of control | [8] 93 % of control | dose: 100.0 mg/kg/injection, schedule: Q04DX003 (ip), vehicle: alcohol 102 % of control | [9] 96 % of control | dose: 200.0 mg/kg/injection, schedule: Q04DX003 (ip), vehicle: alcohol 104 % of control

CC(C)(C)c1ccc(SCCN=C(N)CSS(=O)(=O)O)cc1
inactive: dose: 3.13 mg/kg/injection, schedule: Q01DX009 (ip), vehicle: Klucel (hydroxypropylcellulose) (HPC) 91 % of control | dose: 3.13 mg/kg/injection, schedule: Q04DX002 (ip), vehicle: Klucel (hydroxypropylcellulose) (HPC) 98 % of control | dose: 6.25 mg/kg/injection, schedule: Q01DX009 (ip), vehicle: Klucel (hydroxypropylcellulose) (HPC) 102 % of control | dose: 6.25 mg/kg/injection, schedule: Q04DX002 (ip), vehicle: Klucel (hydroxypropylcellulose) (HPC) 107 % of control | dose: 12.5 mg/kg/injection, schedule: Q04DX002 (ip), vehicle: Klucel (hydroxypropylcellulose) (HPC) 98 % of control and 106 % of control

CCCC#C/C=C1/C=CC(=O)O1
inactive: dose: 75.0 mg/kg/injection, schedule: Q01DX001 (ip), vehicle: carboxymethylcellulose (CMC) 94 % of control | dose: 150.0 mg/kg/injection, schedule: Q01DX001 (ip), vehicle: carboxymethylcellulose (CMC) 97 % of control

CNC(C)c1ccc(C)cc1 (centres undefined)
inactive: dose: 6.25 mg/kg/injection, schedule: Q01DX009 (ip), vehicle: saline 123 % of control | dose: 12.5 mg/kg/injection, schedule: Q01DX009 (ip), vehicle: saline 95 % of control | dose: 25.0 mg/kg/injection, schedule: Q01DX009 (ip), vehicle: saline 100 % of control

CC12CCC3c4ccc(Cc5ccc([N+](=O)[O-])cc5)cc4CCC3C1CCC2=O (centres undefined)
inactive: [1] 105 % of control | [2] 100 % of control | [3] 100 % of control | [4] 105 % of control
